Entries after “also recorded” stand apart in the source; their conditions may differ. Where two headings read alike, the source gives them in different places.
Tests used:
[1] = Ethanol-intake model (section C); format: in vivo, Male P rats
Procedure: Male P rats were obtained from Indiana University School of Medicine (Indianapolis, IN, USA). P rats were ˜90 days old at the beginning of the drinking paradigms. P rats were used in this study as they fit the necessary criteria of ethanol preference. P rats may consume freely ethanol (15% and 30%, v/v) and achieve a pharmacologically blood alcohol concentration (BACs) of 50-200 mg % as shown in previous studies from Indiana University. Rats were housed in a room kept at 21° C. on a 12/12-hour light/dark cycle and had free access to water and food. All experimental procedures were approved by the Institutional Animal Care and Use Committee (IACUC) at University of Toledo under protocol #400160, in accordance with all guidelines of IACUC of the National Institute of Health, and the Guide for the Care and Use of Laboratory Animals.
Rats were assigned to three groups prior to the start of the experiments based on their weights, and the average weights of each group were similar between all groups. Male P rats were divided into three groups: a) Control/water group was exposed to water for five weeks and received saline vehicle injection (i.p.) every 24 hours during Week 6 for a total of five days; b) Ethanol/saline group was exposed to free choice of ethanol (15% and 30%, v/v) as well as water for 5 weeks and received saline vehicle (i.p.) every 24 hours during Week 6 for a total of five days; c) Ethanol/MC-100093 group was exposed to free choice of ethanol (15% and 30%, v/v) as well as water for 5 weeks and received MC-100093 (100 mg/kg, i.p.) every 24 hours during Week 6 for 5 days (FIG. 16). […]
The baseline was calculated by taking the average of the prior 5 weeks of water and ethanol consumption as rat weight. […] As weights of the bottles were recorded, the measurements were converted using g of ethanol intake/kg of body weight/day formula to determine ethanol consumption in g/kg of body weight. […]
Statistical analyses were performed using GraphPad Prism Version 10. […] Statistical significance was determined by a p-value of or less than 0.05.

[2] = rodent liver microsomes in vitro; cited from earlier work
[3] = system: GLT-1; details: cited from earlier work
[4] = human liver microsomes in vitro; cited from earlier work
[5] = system: xCT; assay: Immunoblot xCT in mPFC-IL, mPFC-PL, NAc-core, NAc-shell (section B); format: in vivo, Male and female alcohol-preferring (P) rats; details: 100 mg/kg i.p. 5 days
Procedure: After 24 hours of receiving the last injection, rats were euthanized by CO2 inhalation followed by decapitation with a guillotine. Brains were harvested and immediately frozen on dry ice and stored at −80° C. Cryostat (Leica) was used to isolate the mPFC subregions (mPFC-IL and mPFC-PL), and subregions of the NAc (NAc-core and NAc-shell). Brains were micro-punctured using the stereotaxic coordinates following the Rat Brain Atlas. The isolated brain regions were stored at −80° C. for subsequent protein detection using Western Blot assay.
Immunoblot assays were performed to determine the expression of GLT-1, xCT and β-tubulin in mPFC-IL, mPFC-PL, NAc-core, and NAc-shell of all groups as described previously. Briefly, brain samples were homogenized in lysis buffer supplemented with protease inhibitor and total protein was quantified using protein assay (Bio-Rad, Hercules, CA, USA). Equal amount of the samples was loaded on polyacrylamide gel (10-20%).
Subsequently, proteins were transferred on a PVDF membrane and blocked with 5% milk in Tris-buffered saline Tween-20 (1×TBST) for 30 minutes at room temperature. Membranes were then incubated overnight at 4° C. with one of the following antibodies: rabbit anti-GLT-1 (1:1000, Abcam, AB41621), and/or rabbit anti-xCT (1:1000, Abcam, AB175186). Mouse anti-β-tubulin (1:1000; Cell Signaling D71G5) was used as a loading control antibody. On the following day, membranes were washed five times with 1×TBST followed by incubation with appropriate secondary antibody (1:4000) for 60 minutes at room temperature. Chemiluminescent reagents (Super Signal West Pico, Pierce Inc.) were used to detect proteins using a ChemiDoc imaging system (BioRad, USA).
GLT-1 and xCT expression were normalized against β-tubulin, a control loading protein. Imaging System and ImageJ software version 1.53a were used to quantify and analyze the expression of GLT-1 and xCT in the subregions of the mPFC and NAc. Data from water-control group were represented as 100% and all other values were expressed relative to this control to evaluate the changes in protein expression.
The ratios for treated animals in the ethanol/saline and ethanol/MC-100093 groups were normalized to the mean ratios for the control group (water/saline group). The control ratio was set at 100, and the results from each of the treated groups were expressed as a percentage relative to the water/saline group value of 100%. We normalized the ethanol/saline and ethanol/MC-100093 groups data to water/saline group to reduce any differences of contrast with Western blots for each set of groups (control/water/saline, ethanol/saline, and ethanol/MC-100093 groups).
All statistical analyses were conducted using GraphPad Prism (10). Two-way (mixed) ANOVA followed by Bonferroni multiple comparison post-hoc test was performed to analyze daily ethanol intake, average daily water intake and body weight. One-way ANOVA followed by Newman-Keuls post hoc tests were used to analyze Western blot data. All statistical analyses data were reported as a p<0.05 of significance.

[6] = female P rats, vs ethanol-saline and water-saline

With `C[C@@H](O)[C@H]1C(=O)N[C@@H]1[C@@H](C)C(=O)N1CCN(C)CC1` [MC-100093] the Water intake ([1]; male P rats exposed to ethanol, 100 mg/kg i.p., day 5, 100 mg/kg) was “significant increase in water intake; also recorded: drank significantly more water than the ethanol/saline group”, the Body weight ([1]; male P rats, 100 mg/kg i.p. 5 days) was “no significant effect of Treatment by Day interaction on body weight” and the Ethanol intake ([1]; male P rats, 100 mg/kg i.p. days 1-5 of Week 6, vs saline vehicle, 100 mg/kg) was “reduced ethanol intake after 5-week drinking regimen; also recorded: significant decrease in ethanol intake; also recorded: reduced ethanol intake in P rats staring 24 hours after the first injection of the drug through the five days regimen; also recorded: robust effect in ethanol intake”. For the same molecule, the “Stability in liver microsomes” value [2] was “high stability”, the GLT-1 upregulatory properties [3] was “potent GLT-1 upregulator; also recorded: enhanced GLT-1 upregulatory properties compared to ceftriaxone” and the “Stability in liver microsomes” value [4] was “high stability”. For the same molecule, the “xCT expression in the NAc-core” value [5, 6] was “significant upregulation of xCT expression”, the “xCT expression in the NAc-shell” value [5, 6] was “significant upregulation in the expression of xCT” and the “xCT expression in the mPFC-IL” value [5, 6] was “significant upregulation in the expression of xCT”. For the same molecule, the “xCT expression in the mPFC-PL” value [5, 6] was “significant upregulation of the expression of xCT”, the “xCT expression in mPFC and NAc subregions (summary)” value ([5]; female and male P rats, vs ethanol-saline groups, 100 mg/kg) was “upregulated GLT-1 and xCT expression in mPFC and NAc subregions; also recorded: upregulated xCT expression in both the NAc and the mPFC subregions in male and female P rats; also recorded: increasing GLT-1 and xCT expression in the mPFC and NAc subregions” and the “xCT expression in the NAc-core” value ([5]; male P rats) was “significantly increased the expression of xCT”. The “xCT expression in the NAc-shell” value ([5]; male P rats) was “increased the expression of xCT”, the “xCT expression in the mPFC-IL” value ([5]; male P rats) was “significantly increased the expression of xCT” and the “xCT expression in the mPFC-PL” value ([5]; male P rats) was “significantly increased the expression of xCT”.

From patent US20250057808A1, “COMPOSITION COMPRISING BETA LACTAM FOR TREATING ALCOHOL DEPENDENCE AND ALCOHOL ASSOCIATED DISEASES OR CONDITIONS” (Temple University of the Commonwealth System of Higher …, priority 2023, published 2025)
